Measurements as given in PubChem BioAssay (NCI).
Values joined by “and” are separate entries in the source; they are usually repeats but may differ in a detail not shown here. Equal entries are not always repeated.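 Compound exposure: 48 hours, 5 concentrations, 96-well plates. GI50 = concentration required for 50% inhibition of growth. TGI: total growth inhibition.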

tested on: MDA-MB-468 breast; assay: NCI tumour cell line growth inhibition, 48 h

Going from `CC1=C([Te]c2ccc(O)cc2)C(=O)c2ccccc2C1=O` to `O=C1OC(c2ccccc2)(c2cc(Br)c(O)c(Br)c2)c2ccccc21` (configuration not stated), the GI50 rises from 0.697 µM to 27 µM (39-fold).

Compared with `COc1ccc(-c2nc(N3CCN(C(=O)C4CCCCC4)CC3)c3c4c(sc3n2)CCCC4)cc1`, `Cc1ccc(-c2nc(N3CCCNCC3)c3oc(-c4ccccc4)nc3n2)cc1` is 19-fold lower in GI50: 29.1 µM for the first, 1.55 µM for the second.

First: COC(=O)[C@H](Cc1ccc(O)cc1)NC(=O)[C@@H](OC)[C@@H]1Cc2cc3cc(OC4CC(OC5CC(O)C(O)C(C)O5)C(O)C(C)O4)c(C)c(O)c3c(O)c2C(=O)[C@H]1OC1CC(OC2CC(OC3CC(C)(O)C(O)C(C)O3)C(O)C(C)O2)C(O)C(C)O1 (some centres not stated)
Second: CCOC(=O)[C@@H](C)C[C@H](Cc1ccccc1)NC(=O)c1csc([C@@H](C[C@H](C(C)C)N(C)C(=O)[C@H](CC)NC(=O)[C@H]2CCCCN2C)OC(C)=O)n1
The GI50 of the first is higher: 0.0672 µM for the first, < 0.00167 µM for the second.

First: Cc1cc(O)cc(C)c1/C=C/c1cncc(-c2nn[nH]n2)c1
Second: CNC(=O)Oc1cc(C)c(/C=C/c2cncc(C(=O)NC)c2)c(C)c1
The GI50 of the first is higher: > 25 µM for the first, 11 µM for the second.

Compared with `c1ccc(CN=C(NCc2ccccc2)NCc2ccccc2)cc1`, `O=C(NO)c1ccc(Cn2c(=O)n(-c3ccccc3F)c(=O)c3ccccc32)cc1` is 1.9-fold lower in GI50: 2.29 µM for the first, 1.18 µM for the second.

`Nc1c(C(=O)c2ccc(CCCN3CCOCC3)cc2)cnn1-c1ccc(F)cc1` and `O=C(/C(=C/c1ccc([N+](=O)[O-])cc1)SCc1ccc(F)cc1)c1ccc(Cl)cc1` are within 1.5-fold of each other in GI50: 8.19 µM for the first, 9.46 µM for the second.

`C/C(=C(\c1ccc(OCCN2CCCCCC2)cc1)c1ccc(OC(=O)Cc2ccccc2)cc1)c1ccc(Cl)cc1` and `CC/C(=C(/c1ccc(O)cc1)c1ccc(OCCN2CCCCC2)cc1)c1ccc(OC)cc1` are within 1.5-fold of each other in GI50: 1.99 µM for the first, 1.37 µM for the second.

Compared with `O=C(NCc1ccncc1)C12CC3CC(C1)CC(c1ccc(Cl)cc1)(C3)C2`, `O=C(Nc1nc2ccc(F)cc2s1)c1cccnc1Nc1ccc(Cl)cc1` is 4.1-fold lower in GI50: 6.58 µM for the first, 1.61 µM for the second.

Going from `O=S(=O)(Nc1cc(Cl)ccc1Cl)c1ccc(-c2cnc(C3CC3)o2)cc1` to `CCc1ccc2c(c1)N(CCO)C1=C(C(=O)OC1)C2c1cccc(Cl)c1` (configuration not stated), the GI50 falls from 0.821 µM to 0.239 µM (3.4-fold).

First: Cc1nc2cnc(N)c(C#Cc3cncc(C(=O)Nc4ccc(Cl)c(C(F)(F)F)c4)c3)c2nc1C
Second: COc1cc(-c2nn(-c3cccc(NC(=O)c4ccc(N5CCOCC5)c(C(F)(F)F)c4)c3)cc2-c2ccncc2)ccc1Cl
The GI50 of the first is 16-fold higher: 2.87 µM for the first, 0.183 µM for the second.

Going from `Cc1cc(Oc2ccc3nc(COc4ccc(CC5SC(=O)NC5=O)cc4)n(C)c3c2)cc(C)c1N` (configuration not stated) to `CCS(=O)(=O)Nc1cccc(Nc2c3cccc(C)c3nc3c(C)cccc23)c1OC`, the GI50 falls from 25.9 µM to 2.24 µM (12-fold).

Compared with `C=CN(C)S(C)(=O)=O`, `COc1cnc2c(c1)C(=O)c1c-2n(CCCNC(C)C)c(=O)c2cc(F)ccc12` is lower in GI50: > 100 µM for the first, 0.226 µM for the second.

Compared with `CN1CC(CNC(=O)OCc2ccccc2)CC2c3cccc4c3c(cn4C)CC21` (configuration not stated), `COc1cccc2c1c(C1=C(c3cn(C)c4ccccc34)C(=O)NC1=O)cn2C` is higher in GI50: 1.61 µM for the first, > 25 µM for the second.

Going from `Cc1ncsc1-c1ccc(CNC(=O)[C@@H]2C[C@@H](O)CN2C(=O)[C@@H](NC(=O)C2(C#N)CC2)C(C)(C)C)cc1` to `CN(C)CCCNC(=O)c1cncnc1Nc1ccc(OCc2cccc(F)c2)c(Cl)c1`, the GI50 falls from 54.5 µM to 1.55 µM (35-fold).

Going from `C[C@H]1[C@H]2[C@H]3CC[C@@H]4[C@@]5(C)C/C(=C/c6cccnc6)C(=O)C(C)(C)[C@@H]5CC[C@@]4(C)[C@]3(C)CC[C@]23CO[C@]1(C)[C@@H](C(=O)/C=C\c1cccnc1)C3` to `COc1cc(OC)c(NC(=O)c2cc3ccccc3cc2O)cc1Cl`, the GI50 rises from 0.864 µM to 3.12 µM (3.6-fold).

First: CCCCCCc1nc2nc(Cl)c(Cl)nc2[nH]1
Second: CCN(CC)CCCC(C)N=c1cc(Nc2cc(=NC(C)CCCN(CC)CC)c3cc(OC)ccc3o2)oc2ccc(OC)cc12 (configuration not stated)
The GI50 of the first is 5.3-fold higher: 2.9 µM for the first, 0.543 µM for the second.

For `COc1ccc(-c2c(-c3cc(OC)c(OC)c(OC)c3)noc2N)cc1`, the GI50 was < 0.0143 µM.

Compared with `CC1=C([Te]c2ccc(O)cc2)C(=O)c2ccccc2C1=O`, `O=C1OC(c2ccccc2)(c2cc(Br)c(O)c(Br)c2)c2ccccc21` (configuration not stated) is 42-fold higher in TGI: 2.17 µM for the first, 90.9 µM for the second.

First: COc1ccc(-c2nc(N3CCN(C(=O)C4CCCCC4)CC3)c3c4c(sc3n2)CCCC4)cc1
Second: Cc1ccc(-c2nc(N3CCCNCC3)c3oc(-c4ccccc4)nc3n2)cc1
The TGI of the first is higher: > 100 µM for the first, 3.24 µM for the second.

Going from `COC(=O)[C@H](Cc1ccc(O)cc1)NC(=O)[C@@H](OC)[C@@H]1Cc2cc3cc(OC4CC(OC5CC(O)C(O)C(C)O5)C(O)C(C)O4)c(C)c(O)c3c(O)c2C(=O)[C@H]1OC1CC(OC2CC(OC3CC(C)(O)C(O)C(C)O3)C(O)C(C)O2)C(O)C(C)O1` (some centres not stated) to `CCOC(=O)[C@@H](C)C[C@H](Cc1ccccc1)NC(=O)c1csc([C@@H](C[C@H](C(C)C)N(C)C(=O)[C@H](CC)NC(=O)[C@H]2CCCCN2C)OC(C)=O)n1`, the TGI rises from 0.839 µM to > 12.6 µM.

`Cc1cc(O)cc(C)c1/C=C/c1cncc(-c2nn[nH]n2)c1` and `CNC(=O)Oc1cc(C)c(/C=C/c2cncc(C(=O)NC)c2)c(C)c1` cannot be ordered by TGI: > 25 µM for the first, > 25 µM for the second.

Going from `c1ccc(CN=C(NCc2ccccc2)NCc2ccccc2)cc1` to `O=C(NO)c1ccc(Cn2c(=O)n(-c3ccccc3F)c(=O)c3ccccc32)cc1`, the TGI falls from 5.38 µM to 3.21 µM (1.7-fold).

`Nc1c(C(=O)c2ccc(CCCN3CCOCC3)cc2)cnn1-c1ccc(F)cc1` and `O=C(/C(=C/c1ccc([N+](=O)[O-])cc1)SCc1ccc(F)cc1)c1ccc(Cl)cc1` cannot be ordered by TGI: > 25 µM for the first, 38.7 µM for the second.

`C/C(=C(\c1ccc(OCCN2CCCCCC2)cc1)c1ccc(OC(=O)Cc2ccccc2)cc1)c1ccc(Cl)cc1` and `CC/C(=C(/c1ccc(O)cc1)c1ccc(OCCN2CCCCC2)cc1)c1ccc(OC)cc1` are within 1.5-fold of each other in TGI: 4.38 µM for the first, 3.22 µM for the second.

First: O=C(NCc1ccncc1)C12CC3CC(C1)CC(c1ccc(Cl)cc1)(C3)C2
Second: O=C(Nc1nc2ccc(F)cc2s1)c1cccnc1Nc1ccc(Cl)cc1
The TGI of the first is lower: 21.1 µM for the first, > 100 µM for the second.

Compared with `O=S(=O)(Nc1cc(Cl)ccc1Cl)c1ccc(-c2cnc(C3CC3)o2)cc1`, `CCc1ccc2c(c1)N(CCO)C1=C(C(=O)OC1)C2c1cccc(Cl)c1` (configuration not stated) is 35-fold lower in TGI: 30.1 µM for the first, 0.861 µM for the second.

First: Cc1nc2cnc(N)c(C#Cc3cncc(C(=O)Nc4ccc(Cl)c(C(F)(F)F)c4)c3)c2nc1C
Second: COc1cc(-c2nn(-c3cccc(NC(=O)c4ccc(N5CCOCC5)c(C(F)(F)F)c4)c3)cc2-c2ccncc2)ccc1Cl
The TGI of the first is 15-fold higher: 11.6 µM for the first, 0.781 µM for the second.

First: Cc1cc(Oc2ccc3nc(COc4ccc(CC5SC(=O)NC5=O)cc4)n(C)c3c2)cc(C)c1N (configuration not stated)
Second: CCS(=O)(=O)Nc1cccc(Nc2c3cccc(C)c3nc3c(C)cccc23)c1OC
The TGI of the first is higher: > 93.6 µM for the first, 25.5 µM for the second.

Compared with `C=CN(C)S(C)(=O)=O`, `COc1cnc2c(c1)C(=O)c1c-2n(CCCNC(C)C)c(=O)c2cc(F)ccc12` is lower in TGI: > 100 µM for the first, 0.702 µM for the second.

Compared with `CN1CC(CNC(=O)OCc2ccccc2)CC2c3cccc4c3c(cn4C)CC21` (configuration not stated), `COc1cccc2c1c(C1=C(c3cn(C)c4ccccc34)C(=O)NC1=O)cn2C` is higher in TGI: 3.12 µM for the first, > 25 µM for the second.

Compared with `Cc1ncsc1-c1ccc(CNC(=O)[C@@H]2C[C@@H](O)CN2C(=O)[C@@H](NC(=O)C2(C#N)CC2)C(C)(C)C)cc1`, `CN(C)CCCNC(=O)c1cncnc1Nc1ccc(OCc2cccc(F)c2)c(Cl)c1` is lower in TGI: > 100 µM for the first, 3.02 µM for the second.

First: C[C@H]1[C@H]2[C@H]3CC[C@@H]4[C@@]5(C)C/C(=C/c6cccnc6)C(=O)C(C)(C)[C@@H]5CC[C@@]4(C)[C@]3(C)CC[C@]23CO[C@]1(C)[C@@H](C(=O)/C=C\c1cccnc1)C3
Second: COc1cc(OC)c(NC(=O)c2cc3ccccc3cc2O)cc1Cl
The TGI of the first is 3.4-fold lower: 2.39 µM for the first, 8.24 µM for the second.

Compared with `CCCCCCc1nc2nc(Cl)c(Cl)nc2[nH]1`, `CCN(CC)CCCC(C)N=c1cc(Nc2cc(=NC(C)CCCN(CC)CC)c3cc(OC)ccc3o2)oc2ccc(OC)cc12` (configuration not stated) is lower in TGI: > 100 µM for the first, 1.19 µM for the second.

For `COc1ccc(-c2c(-c3cc(OC)c(OC)c(OC)c3)noc2N)cc1`, the TGI was 1.1 µM.

With `COc1cc(-c2ncn(/C=C\C(=O)OC(C)C)n2)cc(C(F)(F)F)c1` the GI50 was 0.126 µM and 0.141 µM.
For `CCc1cc2c(cc1N1CCC(N3CCOCC3)CC1)C(C)(C)c1[nH]c3cc(C#N)ccc3c1C2=O`, the GI50 was 1.8 µM and 2.05 µM and 2.14 µM.
`CCN(CC)CCNc1cc(-c2cccc(OC(F)(F)F)c2)nc2ccc(N3CCCC3)cc12` was tested, and the GI50 was 1.64 µM and 1.84 µM.

With `COc1cc(-c2ncn(/C=C\C(=O)OC(C)C)n2)cc(C(F)(F)F)c1` the TGI was 0.67 µM and 1.24 µM.
With `CCc1cc2c(cc1N1CCC(N3CCOCC3)CC1)C(C)(C)c1[nH]c3cc(C#N)ccc3c1C2=O` the TGI was 5.25 µM and 5.67 µM and 7.85 µM.
`CCN(CC)CCNc1cc(-c2cccc(OC(F)(F)F)c2)nc2ccc(N3CCCC3)cc12` was tested, and the TGI was 3.18 µM and 3.61 µM.
